What was measured:
[1] = test system: PanIN and PDA tumor growth in KIC mice; test: Two week in vivo assay in Rgs16::GFP;KIC mice, Rgs16::GFP intensity at P29; set-up: species or system mouse; details: for effect on GFP levels when combined with GA: drug dissolved in 30% Cyclodextrin
Source text: Fluorescent microscopy and GFP quantification. Pancreatic expression of Rgs16::GFP in GFP-PDA mice was quantified using a Zeiss Lumar microscope. Images were captured using a single-channel camera (Hamamatsu) in 1344×1024 resolution with 1 sec exposure under 48× magnification with 1×1 binning, analog gain=10, and analog offset=2 settings. Pancreatic fields representing the tumor burden (3-4 fields for P15 pups and 5 or more for pups from P23 onwards) of the pancreas were imaged covering up to 50% of the organ surface area. All images were saved in gray-scale 16-bit tiff format. Images were quantified using NIH ImageJ software with background subtraction with a radius of 50 pixels. A variable and tight threshold was set to eliminate residual background. Intensities of all particles with size ≥5 pixels were summed to obtain the total light intensity per image.
Drug dosages. GFP-PDA mice were injected intraperitoneally with gemcitabine (Eli Lilly; Indianapolis, Ind., USA) (12.5 mg/kg/day given 3 days/week, dissolved in PBS), Abraxane (Cellgene; Summit, N.J., USA) (5 mg/kg/day given 2 days/week, diluted in 2% saline solution), BGB324 (BerGenBio, Bergen, Norway) (5 mg/kg/day given 5 days/week, dissolved in a mix of DMSO:ethanol:Kolliphor EL:water with 4:4:8:84 v/v ratio), and warfarin (0.2 mg/kg/day given 5 days/week, dissolved in PBS) according to injection schedules specified below. These doses were validated in prior mouse studies (Dineen et al., 2010; Kutluk Cenik et al., 2013; Ostapoff et al., 2013; Aguilera et al., 2014; Ostapoff et al., 2014). […] To verify tumor progression remains constant over the duration of these experiments, assays of untreated mice were interspersed with drug-treated cohorts, and warfarin-treated pups were the final cohort the inventors tested. Gemcitabine, Abraxane and warfarin were purchased from the UT Southwestern clinical pharmacy; BGB324 was a gift from BerGenBio.
Statistical analysis of GFP expression. GFP values were converted to log10 scale prior to statistical analysis. Graphs and their statistical comparisons were done using Graphpad Prism software with unpaired and two-tailed Student's t test. Significance between groups was indicated as ns (not significant); *p<0.05; **p<0.01; ***p<0.001; ****p<0.0001. Error bars in all the graphs are standard error mean (SEM). See FIGS. 7-8 for additional statistical analysis.
The therapeutic screening strategy was to treat KIC pups between P15-P28 (when PanIN and PDA are in rapid expansion) with anticancer drugs, sacrifice mice at P29, and capture Rgs16::GFP intensity with a dissection fluorescence microscope. Images of the five brightest non-overlapping fields of Rgs16::GFP expression were then collected, representing the regions of greatest tumor burden (FIGS. 17A-C).

Pan02 = test: MTS cell growth assay, gemcitabine +/- warfarin; assay type: cell-based, murine; details: Mus musculus, Pan02, 120 h, gemcitabine alone, 5 days, read-out: Gemcitabine (nmol/L) median IC50
Description: (§1) Cytotoxicity and augmentation of chemotherapy response was measured by MTS assays conducted in 96-well plates; cells were plated on day 0 and drug was added on day 1 in 4-fold dilutions. Maximum concentration of 2,000 nmol/L for gemcitabine was used with or without the addition of a constant concentration of 2 μM warfarin or 1.1 μM 10C9. Relative cell number was determined by adding MTS (Promega; final concentration […]), incubating for 1 to 3 hours at 37° C., and reading absorbance. Drug sensitivity curves and IC50s were calculated using in-house software.

Panc1 = test: MTS cell growth assay, gemcitabine +/- warfarin; assay type: cell-based, human; details: Homo sapiens, PANC-1, 120 h; gemcitabine alone; 5 days, MTS; read-out: Gemcitabine (nmol/L) median IC50
Description: as §1

ASPC = test: MTS cell growth assay, gemcitabine +/- warfarin; assay type: cell-based, human; details: Homo sapiens, 120 h; gemcitabine alone; 5 days, MTS; read-out: Gemcitabine (nmol/L) median IC50
Description: as §1

[2] = Body weight of KIC weanling mice under chemotherapy; assay type: in vivo, mouse; details: P29
Source text: FIG. 19. […] Comparison of body weight of female (round) and male (square) non-KIC control (Ctrl, grey), and KIC untreated (Unt, black) or chemotherapy-treated KIC groups are shown. […] Significances are based on comparison of any KIC group to Ctrl via unpaired and two-tailed Student's t-test. ****, p<0.0001.

advanced PDA = details: patients; cited from earlier work
advanced ovarian cancer = details: gemcitabine with carboplatin; cited from earlier work
primary PDA cells = test: Rgs16::GFP PDA primary cell culture, live cell counts after 24 hr drug treatment; assay type: cell-based, mouse; details: for effect on cell viability and proliferation: 24 hr, gemcitabine 10 μM, BGB324 or warfarin 1 or 10 μM; for recovery of cell growth after drug removal: passages without drug after 24 hr treatment
Description: Cell proliferation counts of primary PDA culture after 24 hr treatment with (FIG. 20A) gemcitabine (purple round); (FIG. 20B) BGB324 (green round); (FIG. 20C) warfarin (blue round); or (FIG. 20D) BGB324 with warfarin (green or blue round) at the indicated concentrations. PDA primary cells were plated at equal density (black open circle) at the start. Next day, cells were treated with drugs (D, red font) for 24 hr (red line). Approximate cell number at the start of drug treatment was obtained from another plate with equal density (red open circle). At the end of treatment, cells in each group were counted and subsequent passages started with cells plated at equal density (grey asterisk). Drug treated groups were allowed to grow without drug selection thereafter. Control cells (Ctrl) on separate plates were grown without drug and counted at the end of each passage (black open circle). PDA live cell numbers were obtained via counts using a hemocytometer after 2% Trypan blue staining to distinguish between living and dead cells under an inverted microscope with 10× objective. Statistical significances are based on comparison of drug-treated cell counts to Ctrl. […] Statistical analyses were obtained by comparing counts of drug-treated cells to Ctrl via unpaired and two-tailed Student's t-test. *, p<0.05; **, p<0.01; ***, p<0.001; ****, p<0.0001. Asterisks match the color of the comparison group.
Rgs16::GFP PDA primary cell culture. Primary Rgs16::GFP PDA cells were harvested from 6-week-old KIC mice. Cells were grown in 25 mM Glucose DMEM (HyClone) with 10% FBS (Serum Source International), penicillin and streptomycin (Life Technologies) on rat tail collagen typel (BD Biosciences) coated plates (0.5 μg/cm^2) in a humidified incubator at 37° C. and 5% CO2. Cells reaching confluency were washed twice with PBS (HyClone) and lifted with 0.05% Trypsin-EDTA (HyClone) treatment up to 10 min in the incubator. For drug tests in FIGS. 20A-D, primary PDA cells were incubated with gemcitabine (10 μM dissolved in PBS), warfarin (1 μM or 10 μM dissolved in water), BGB324 (1 μM or 10 μM dissolved in DMSO) or warfarin and BGB324 together for 24 hrs in 37° C. incubator. PDA live cell numbers were obtained via counts using a hemocytometer following 2% trypan blue staining to distinguish dead cells under an inverted microscope.

Capan = test: MTS cell growth assay, gemcitabine +/- warfarin; assay type: cell-based; details: Homo sapiens, 120 h, gemcitabine alone, 5 days, read-out: Gemcitabine (nmol/L) median IC50
Description: as §1

MiaShAxl = test: MTS cell growth assay, gemcitabine +/- warfarin; assay type: cell-based; details: Homo sapiens, 120 h, gemcitabine alone, 5 days, read-out: Gemcitabine (nmol/L) median IC50
Description: as §1

MiaPaca = test: MTS cell growth assay, gemcitabine +/- warfarin; assay type: cell-based; details: Homo sapiens, MIA PaCa-2, 120 h, gemcitabine alone, 5 days, read-out: Gemcitabine (nmol/L) median IC50
Description: as §1

Axl = molecular target: T1, Axl (Homo sapiens, UniProt P30530); test: Phosphorylated Axl in Panc-1 cells (western blot, immunofluorescence); assay type: cell-based; details: overnight, 1% serum, 2 μM
T1 construct: Lysates were probed for total Axl (tAxl) and phosphorylated Axl (pAxl); endogenous in cells; host or cells: Panc-1
Description: (FIG. 24A) HEK293 cells engineered to stably express recombinant Gas6 were grown in the presence of Vitamin K or Vitamin K+warfarin. Gas6 levels and γ-carboxylation were assayed by immunoblotting conditioned media. Conditioned media from untransfected HEK293 cells was used as a negative control. (FIG. 24B) Panc1 cells were grown overnight in media with 1% serum with no additions (NT), warfarin (2 μM) or BGB324 (2 μM). Lysates were probed for total Axl (tAxl) and phosphorylated Axl (pAxl). (FIG. 24C) Panc1 cells were grown in the presence of control media, Vitamin K, warfarin or warfarin+Vitamin K. The level of phosphorylated Axl (pAXL, red) was determined by immunofluorescence. (FIG. 24D) Panc1 cells were grown overnight in media with 1% serum with no additions (control), warfarin (1 μM), Gas6 (1.3 nM) or Gas6+warfarin. Lysates were probed for phosphorylated Akt (pAkt) and actin. (FIG. 24E) Lysates from Panc1 tumors harvested from mice treated with control or warfarin were probed for expression of tAxl, pAxl, actin, pAKT, tAKT, and cleaved Parp. (FIG. 24F) The effect of warfarin on cell migration was assessed by a ‘scratch’ assay. Monolayers of the indicted cells were wounded with a pipet tip. The cells were incubated in media containing 2% serum+/−warfarin (2 μM) or media containing 2% serum+Gas6 (1.3 nM)+/−warfarin.

[3] = molecular target: vitamin K epoxide reductase (Homo sapiens, UniProt Q9BQB6); details: cited from earlier work
vitamin K epoxide reductase, sequence (Q9BQB6 whole entry): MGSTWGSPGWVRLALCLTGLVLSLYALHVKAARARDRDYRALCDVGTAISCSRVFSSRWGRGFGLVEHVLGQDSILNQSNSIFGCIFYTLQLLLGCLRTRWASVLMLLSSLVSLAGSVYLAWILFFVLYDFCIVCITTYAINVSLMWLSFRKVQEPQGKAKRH

T1 sequence (P30530 26-894): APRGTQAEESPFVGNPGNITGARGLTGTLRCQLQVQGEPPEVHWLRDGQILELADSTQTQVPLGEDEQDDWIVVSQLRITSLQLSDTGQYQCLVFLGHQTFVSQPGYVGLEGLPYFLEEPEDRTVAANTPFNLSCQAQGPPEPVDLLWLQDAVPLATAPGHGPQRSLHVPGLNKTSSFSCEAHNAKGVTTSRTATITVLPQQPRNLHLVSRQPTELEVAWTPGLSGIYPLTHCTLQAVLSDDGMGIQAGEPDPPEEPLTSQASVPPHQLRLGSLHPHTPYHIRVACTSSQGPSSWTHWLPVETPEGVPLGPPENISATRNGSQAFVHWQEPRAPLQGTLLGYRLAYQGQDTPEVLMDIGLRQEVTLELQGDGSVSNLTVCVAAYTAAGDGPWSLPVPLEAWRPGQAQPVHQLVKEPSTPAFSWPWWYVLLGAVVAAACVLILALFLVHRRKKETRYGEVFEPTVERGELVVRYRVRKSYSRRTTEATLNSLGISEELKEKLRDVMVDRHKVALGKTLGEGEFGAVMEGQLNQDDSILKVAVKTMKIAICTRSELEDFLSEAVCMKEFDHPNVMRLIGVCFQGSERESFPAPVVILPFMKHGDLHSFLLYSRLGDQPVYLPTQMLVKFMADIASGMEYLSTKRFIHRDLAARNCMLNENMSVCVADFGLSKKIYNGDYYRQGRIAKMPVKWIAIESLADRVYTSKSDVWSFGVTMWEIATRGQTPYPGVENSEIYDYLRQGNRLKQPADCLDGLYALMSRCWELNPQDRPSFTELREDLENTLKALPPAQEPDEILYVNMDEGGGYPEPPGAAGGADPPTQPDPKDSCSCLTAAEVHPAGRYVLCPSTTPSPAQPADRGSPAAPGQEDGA

Cc1c(CN2CCN(C(=O)[C@H](C)O)CC2)sc2c(N3CCOCC3)nc(-c3cnc(N)nc3)nc12 [GDC980]
effect on GFP levels when combined with GA [1]: did not exert an effect

Nc1ccn([C@@H]2O[C@H](CO)[C@@H](O)C2(F)F)c(=O)n1 [Gemcitabine]
IC50 (Pan02): 76.5 nmol/L
IC50 (Panc1): 17.1 nmol/L
IC50 (ASPC): 16 nmol/L
body weight gain / growth of weanling mice [2]: retards body weight gain
survival (advanced PDA): 6.7 months
effect on PanIN lesions and PDA tumor growth (Rgs16::GFP expression) ([1]; KIC mice treated P15-P28, i.p., sacrificed P29): reduction of GFP expression
neutropenia (most commonly reported adverse effect) (advanced ovarian cancer): 90 % of patients
effect on cell viability and proliferation (primary PDA cells): killed cells
recovery of cell growth after drug removal (primary PDA cells): did not recover
IC50 (Capan): 6.87 nmol/L
IC50 (MiaShAxl): 21 nmol/L
IC50 (MiaPaca): 14.5 nmol/L

Nc1nc(Nc2ccc3c(c2)CC[C@@H](N2CCCC2)CC3)nn1-c1cc2c(nn1)-c1ccccc1CCC2 [BGB324]
phosphorylation of Axl (pAxl) (Axl): inhibited phosphorylation of Axl
effect on GFP levels when combined with GA [1]: did not exert an effect
effect on cell viability and proliferation (primary PDA cells): cytostatic
recovery of cell growth after drug removal (primary PDA cells): within four passages

CC(=O)C[C@@H](c1ccccc1)c1c(O)c2ccccc2oc1=O [S-warfarin]
potency in producing an anticoagulant response relative to the R-isomer [3]: 2-5 times

From patent US9986723B2, “Screen and use of therapeutics for pancreatic ductal adenocarcinoma” (The Board of Regents of the University of Texas System, priority 2014, dated 2018)
